Patent US20250059220A1, “SUBSTITUTED BENZOTHIOPHENE DERIVATIVES AND METHODS OF USE THEREOF” (Merck Sharp & Dohme LLC, priority 2021, published 2025)
pIC50: −log10 of the molar value.

Columns and labels:
human PTPN2 (1-387) = human PTPN2 (1-387) (Homo sapiens (Human), UniProt P17706); experiment: Human PTPN2 Biochemical Assay; settings: DiFMUP substrate
Outline: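 Fluorogenic DiFMUP hydrolysis (1 h, room temperature, read ex 360/em 460 nm) after 30 min compound preincubation with PTPN2 residues 1-387, in 50 mM Tris pH 7.4, 150 mM NaCl, 0.01% Tween20, 0.5 mM DTT. Effects scaled between buffer and enzyme controls, 4-parameter fit gives EC50.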

human PTPN1 (1-435) = human PTPN1 (1-435) (Homo sapiens (Human), UniProt P18031); experiment: Human PTPN1 Biochemical Assay; settings: DiFMUP substrate, read-out: PTP1B IC50
human PTPN1 (1-435), sequence (P18031 whole entry): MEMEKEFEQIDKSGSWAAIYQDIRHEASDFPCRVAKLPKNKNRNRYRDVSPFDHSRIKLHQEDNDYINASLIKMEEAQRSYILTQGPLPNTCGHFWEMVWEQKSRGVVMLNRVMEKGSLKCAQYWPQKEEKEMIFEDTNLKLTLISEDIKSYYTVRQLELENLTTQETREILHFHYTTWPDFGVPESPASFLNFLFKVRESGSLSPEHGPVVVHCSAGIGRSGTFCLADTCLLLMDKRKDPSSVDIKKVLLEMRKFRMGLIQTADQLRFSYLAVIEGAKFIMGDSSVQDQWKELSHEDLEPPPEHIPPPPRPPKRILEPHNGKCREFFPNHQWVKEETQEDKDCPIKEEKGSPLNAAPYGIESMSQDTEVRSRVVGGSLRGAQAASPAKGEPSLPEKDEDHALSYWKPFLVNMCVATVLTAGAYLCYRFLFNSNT
Outline: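 Read-out is DiFMUP hydrolysis fluorescence (360 nm excitation, 460 nm emission) after 1 h at room temperature, following 30 min enzyme–compound preincubation.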

human PTPN2 (1-387), sequence (P17706 other isoform, or with tags, fused parts or gaps): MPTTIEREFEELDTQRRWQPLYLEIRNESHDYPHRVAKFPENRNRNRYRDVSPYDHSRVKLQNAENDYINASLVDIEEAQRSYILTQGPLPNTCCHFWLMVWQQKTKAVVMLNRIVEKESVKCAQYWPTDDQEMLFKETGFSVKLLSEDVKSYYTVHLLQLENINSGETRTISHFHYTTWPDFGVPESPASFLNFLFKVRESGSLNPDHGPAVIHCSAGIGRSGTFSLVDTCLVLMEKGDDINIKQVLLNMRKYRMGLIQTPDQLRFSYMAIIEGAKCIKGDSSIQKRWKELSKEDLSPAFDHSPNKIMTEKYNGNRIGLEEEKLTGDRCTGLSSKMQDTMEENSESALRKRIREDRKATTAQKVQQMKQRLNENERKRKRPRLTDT

Row | SMILES | pIC50 (human PTPN2 (1-387)) | pIC50 (human PTPN1 (1-435))
1 | C#Cc1cc(OCCCC(F)(F)F)c2sc(C(F)(F)P(=O)(O)O)c(Br)c2c1 [Compound 405, ((3-bromo-5-ethynyl-7-(4,4,4-trifluorobutoxy)benzo[b]thiophen-2-yl)difluoromethyl)phosphonic acid] | 6.54 | 6.54
2 | O=P(O)(O)C(F)(F)c1sc2c(OCCCC(F)(F)F)cc(I)cc2c1Br [Compound 406, ((3-bromo-5-iodo-7-(4,4,4-trifluorobutoxy)benzo[b]thiophen-2-yl)difluoromethyl)phosphonic acid] | 6.29 | 6.31
3 | O=C(O)c1cc(OCCCC(F)(F)F)c2sc(C(F)(F)P(=O)(O)O)c(Br)c2c1 [Compound 407] | 6.70 | 6.72
4 | O=P(O)(O)C(F)(F)c1sc2c(OCCCC(F)(F)F)cc(CO)cc2c1Br [Compound 408] | 6.16 | 6.29
5 | CNC(=O)c1cc(OCc2ccc(S(C)(=O)=O)cc2)c2sc(C(F)(F)P(=O)(O)O)c(Br)c2c1 [Compound 409] | 8.59 | 8.43
6 | O=P(O)(O)C(F)(F)c1sc2c(OCCCC(F)(F)F)cccc2c1Br [Compound 410, ((3-bromo-7-(4,4,4-trifluorobutoxy)benzo[b]thiophen-2-yl)difluoromethyl)phosphonic acid] | 6.65 | 6.55
7 | CS(=N)(=O)Cc1cc(OCCCC(F)(F)F)c2sc(C(F)(F)P(=O)(O)O)c(Br)c2c1 (centres unmarked) [Compound 412] | 6.45 | 6.49
8 | CS(=N)(=O)c1cc(OCCCC(F)(F)F)c2sc(C(F)(F)P(=O)(O)O)c(Br)c2c1 (centres unmarked) [Compound 413] | 5.13 | 5.39
9 | CS(=N)(=O)c1cc(OCCCC(F)(F)F)c2sc(C(F)(F)P(=O)(O)O)c(Br)c2c1 (centres unmarked) [Compound 414] | 5.17 | 5.45
10 | NC(=O)c1cc(-c2cc[nH]n2)c2sc(C(F)(F)P(=O)(O)O)c(Br)c2c1 [Compound 415, ((3-bromo-5-carbamoyl-7-(1H-pyrazol-3-yl)benzo[b]thiophen-2-yl)difluoromethyl)phosphonic acid] | 5.42 | 5.41
11 | O=P(O)(O)C(F)(F)c1sc2c(OCCCC(F)(F)F)cc(-c3c[nH]cn3)cc2c1Br [Compound 416, ((3-bromo-5-(1H-imidazol-4-yl)-7-(4,4,4-trifluorobutoxy)benzo[b]thiophen-2-yl)difluoromethyl)phosphonic acid] | 7.04 | 6.86
12 | O=P(O)(O)C(F)(F)c1sc2c(OCCCC(F)(F)F)cc(-c3nnc(C4CC4)[nH]3)cc2c1Br [Compound 418] | 8.57 | 8.60
13 | O=P(O)(O)C(F)(F)c1sc2c(OCCCC(F)(F)F)cc(-c3nnc(C(F)(F)F)[nH]3)cc2c1Br [Compound 420, ((3-bromo-7-(4,4,4-trifluorobutoxy)-5-(5-(trifluoromethyl)-4H-1,2,4-triazol-3-yl)benzo[b]thiophen-2-yl)difluoromethyl)phosphonic acid] | 8.55 | 8.57
14 | CS(=O)(=O)CCCOc1cc(C(N)=O)cc2c(C#N)c(C(F)(F)P(=O)(O)O)sc12 [Compound 421, ((5-carbamoyl-3-cyano-7-(3-(methylsulfonyl)propoxy)benzo[b]thiophen-2-yl)difluoromethyl)phosphonic acid] | 8.31 | 7.92
15 | CNC(=O)c1cc(OCCCS(C)(=O)=O)c2sc(C(F)(F)P(=O)(O)O)c(C#N)c2c1 [Compound 422] | 8.11 | 7.93
16 | N#Cc1c(C(F)(F)P(=O)(O)O)sc2c(OCCCS(N)(=O)=O)cc(C(N)=O)cc12 [Compound 423] | 8.01 | 7.94
17 | N#Cc1c(C(F)(F)P(=O)(O)O)sc2c(OCCCC(F)(F)F)cc(C(N)=O)cc12 [Compound 424] | 8.17 | 7.71
18 | N#Cc1c(C(F)(F)P(=O)(O)O)sc2c(OCC3CC3(F)F)cc(C(N)=O)cc12 (centres unmarked) [Compound 425] | 7.64 | 7.51
19 | N#Cc1c(C(F)(F)P(=O)(O)O)sc2c(OCC3CC3(F)F)cc(C(N)=O)cc12 (centres unmarked) [Compound 426] | 7.99 | 7.86
20 | CNC(=O)c1cc(OCCCS(N)(=O)=O)c2sc(C(F)(F)P(=O)(O)O)c(C#N)c2c1 [Compound 427] | 8.44 | 8.27
21 | CS(=O)(=O)CCCOc1cc(-c2nc[nH]n2)cc2c(C#N)c(C(F)(F)P(=O)(O)O)sc12 [Compound 428] | 8.60 | 8.60
22 | Cc1c(C(F)(F)P(=O)(O)O)sc2c(OCCCS(C)(=O)=O)cc(C(N)=O)cc12 [Compound 429, ((5-carbamoyl-3-methyl-7-(3-(methylsulfonyl)propoxy)benzo[b]thiophen-2-yl)difluoromethyl)phosphonic acid] | 7.06 | 7.09
